Here are results for one molecule from US20210114983A1, “Cathepsin C inhibitors” (National Institute of Biological Sciences, Beijing, priority 2018, published 2021).

Assay [1] deals with NE. Kind of assay: In vivo study, NE activity in rat bone marrow lysates. The note with it: dose dependent. The method, then:
(§1) C57BL/6 mice (20-25 g) were randomly divided into 4 groups (n=10) and kept at 5 animals per cage. Compound 31 was administered orally twice daily at 6.7, 20, 60 mg kg-1 day-1 for 6 days. The matched vehicle controls (0.5% Methocel™, 0.1% Tween 80 in 100 mM citrate buffer, pH 3) were also administered twice daily for 6 days. Mice were weighed and the dose adjusted accordingly on each day. Sprague Dawley (280-300 g) were conducted by intraperitoneal injection twice daily at 1, 5, 20 mg kg-1 day-1 for 8 days. Blood was sampled through eye puncture at 14 h intervals after the end of the administration. Then mice were terminated and bone marrow cells were immediately extracted from femurs and tibias using ice cold RPMI 1640 medium. Blood cells and bone marrow cells were lysed according to the protocols previously described 8 with some modifications. […]
(§2) The analysis was performed as previously described. […] Synthetic peptide substrates (Gly-Phe-AFC(SMBiochemicals) for CatC, methoxysuccinyl-Ala-Ala-Pro-Val-AMC (Sigma) for NE, minobenzoyl-Val-Ala-Asp-Cys-Ala-Asp-Gin-ethylenediamine 2,4-dinitrophenyl (Peptide Synthetics) for Pr3, and N-succinyl-Ala-Ala-Pro-Phe-ONA (Sigma) for CatG) were added before plates were read at fluorescence or absorbance. Assay kinetics was monitored for up to 90 min. Data were analyzed using GraphPad Prism (GraphPad Software, Inc., San Diego, Calif., USA).

The next assay relates to acute pancreatitis. The assay can be described thus: Caerulein-induced acute pancreatitis. Type of assay: in vivo, C57BL/6 mice. The note with it: orally twice daily at 20 mg/kg for 6 days. On the procedure:
Induction of Pancreatitis. The acute pancreatitis was induced by hourly intraperitoneal injections of caerulein (50 μg/kg/body weight) for up to 8 h, 36 C57BL/6 mice (20-25 g) were randomly divided into 4 groups (n=5). Compound 28 were administered orally twice daily at 20 mg/kg for 6 days. The matched vehicle controls (0.5% Methocel™, 0.1% Tween 80 in 100 mM citrate buffer, pH 3) were also administered twice daily for 6 days. On the 6th day, mice were induced pancreatitis after compound administration and after the last caerulein injection, mice were administered compound. The sham-treated group was performed with the same as vehicle controls except that saline was administered instead of caerulein. Mice were killed at 1 h after the last caerulein injection. Tissue was harvested immediately after sacrificing the animals. A portion of pancreas samples were frozen in liquid nitrogen for preparation of homogenate. For histology, pancreas was fixed in 4.5% formalin for paraffin embedding and stained with hematoxylin and eosin. Serum samples were prepared and stored at −20 C. […] Compound 28 were administered orally twice daily at 20 mg/kg. The activity inhibition data of the compound-treated groups are shown as the percentage activity of a sham mean (set to 100% activity). Values are means±SEM. […]

In assay [2] the test system is CatG. Kind of assay: In vivo study, CatG activity in mice bone marrow and blood lysates. The note with it: dose dependent. On the procedure: as §1, §2
Assay [3] addresses T1, CatC (Rattus norvegicus, UniProt P80067).
T1 construct: bone marrow cells were immediately extracted from femurs and tibias; from tissue; host or cells: Sprague Dawley rat bone marrow cell lysate
Kind of assay: In vivo study, CatC activity in rat bone marrow lysates. The note with it: dose dependent. On the procedure: as §1, §2

A further assay deals with rhCatC (Cathepsin C) (Homo sapiens, UniProt P53634). Kind of assay: In Vitro CatC Enzyme Assay. Type of assay: biochemical. The note with it: read-out: Cat C Enzy (Cathepsin C inhibitory activity, IC50). On the procedure:
In Vitro CatC Enzyme Assay
The CatC enzyme assay was performed in black 384-well plate. Firstly, rhCatC (440 nM) was activated by rhCatL (300 nM) in activation buffer (25 mM MES, 5 mM DTT, pH 6.0) at room temperature for 2 h and then activated rhCatC was diluted to 4.4 nM in assay buffer (25 mM MES, 50 mM NaCl, 5 mM DTT, 0.01% (v/v) Triton X100, pH 6.0), 14 μL activated rhCatC and 1 μL compound in 10% DMSO or 10% DMSO were incubated at room temperature for 3 h, and 5 μL substrate (Gly-Phe-AFC) was added to final concentration of 100 μM. After 60 min reaction, the product of the reaction was measured in the Enspire plate reader using Ex λ400 nm and Em λ505 nm for AFC. A standard irreversible CatC inhibitor 10 by AstraZeneca (J. Med. Chem. 2014, 57, 2357-2367) was used as an inhibitor control in the assay.

The subject of assay [4] is CatG. Kind of assay: In vivo study, CatG activity in rat bone marrow lysates. The note with it: dose dependent. On the procedure: as §1, §2
The test system of a further assay is Pr3. Kind of assay: In vivo study, Pr3 activity in mice bone marrow and blood lysates. The note with it: dose dependent. The method, then: as §1, §2
In assay [5] the test system is NE. The assay can be described thus: In vivo study, NE activity in mice bone marrow and blood lysates. The note with it: dose dependent. The method, then: as §1, §2
Assay [6] has as its target T2, CatC (Mus musculus, UniProt P97821).
T2 construct: Blood cells and bone marrow cells were lysed; from tissue; host or cells: C57BL/6 mouse bone marrow and blood cell lysates
Kind of assay: In vivo study, CatC activity in mice bone marrow and blood lysates. The note with it: dose dependent. The method, then:
as §1, §2

T2 sequence (P97821 25-134 limits assumed): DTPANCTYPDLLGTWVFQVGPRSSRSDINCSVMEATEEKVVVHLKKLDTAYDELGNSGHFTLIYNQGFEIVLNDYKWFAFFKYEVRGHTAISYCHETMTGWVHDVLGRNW
T2 sequence (P97821 231-393 limits assumed): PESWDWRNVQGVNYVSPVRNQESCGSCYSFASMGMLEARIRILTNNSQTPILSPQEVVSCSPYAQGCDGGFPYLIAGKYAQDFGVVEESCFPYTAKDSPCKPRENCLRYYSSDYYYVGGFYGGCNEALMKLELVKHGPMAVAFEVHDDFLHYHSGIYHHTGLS
T2 sequence (P97821 394-462 limits assumed): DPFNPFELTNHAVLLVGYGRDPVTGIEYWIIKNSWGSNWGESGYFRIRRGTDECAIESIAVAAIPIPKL
T1 sequence (P80067 25-134 limits assumed): as the sequence (P97821 25-134 limits assumed) above, with S23H, S24P, D27H, A35P, V42I, L54V, H59Y, R86K, H88S, T89R counted along it
T1 sequence (P80067 230-393 limits assumed): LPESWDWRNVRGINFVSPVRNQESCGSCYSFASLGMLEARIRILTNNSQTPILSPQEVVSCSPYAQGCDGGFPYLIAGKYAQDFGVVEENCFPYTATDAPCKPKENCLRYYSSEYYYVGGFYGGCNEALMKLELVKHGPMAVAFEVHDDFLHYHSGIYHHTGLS
T1 sequence (P80067 394-462 limits assumed): as the sequence (P97821 394-462 limits assumed) above, with R20K, I26L, E27D, I31V, N38Q, V61M counted along it
rhCatC (Cathepsin C), sequence (P53634 25-134 limits assumed): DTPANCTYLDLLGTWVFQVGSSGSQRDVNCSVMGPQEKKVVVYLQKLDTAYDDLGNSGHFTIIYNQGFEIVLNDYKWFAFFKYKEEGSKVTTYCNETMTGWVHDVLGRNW
rhCatC (Cathepsin C), sequence (P53634 231-394 limits assumed): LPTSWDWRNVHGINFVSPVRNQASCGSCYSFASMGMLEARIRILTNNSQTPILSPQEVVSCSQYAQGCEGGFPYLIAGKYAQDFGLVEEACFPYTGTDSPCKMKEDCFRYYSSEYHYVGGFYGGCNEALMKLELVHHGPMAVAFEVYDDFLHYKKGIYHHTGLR
rhCatC (Cathepsin C), sequence (P53634 395-463 limits assumed): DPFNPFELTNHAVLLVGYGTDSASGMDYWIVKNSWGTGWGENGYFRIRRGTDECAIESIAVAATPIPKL

Consider `C=CC(=O)Nc1cc(Oc2nc(Nc3ccc(N4CCN(C)CC4)cc3OC)ccc2N2CCCCC2)ccc1C` [Compound 28, N-(5-((6-((2-methoxy-4-(4-methylpiperazin-1-yl)phenyl)amino)-3-(piperidin-1-yl)pyridin-2-yl)oxy)-2-methylphenyl)acrylamide], for which the “activation of NE” value with NE [1], in the assay with NE [5] (mice blood) and in the assay on NE [5] (mice bone marrow) was “inhibited the activation” throughout. Moreover, in the assay with acute pancreatitis, the “severity of acute pancreatitis” value is given as “reduced the severity of acute pancreatitis”. The “activation of CatG” value in the assay with CatG [2] (mice blood), with CatG [2] (mice bone marrow) and with CatG [4] was “inhibited the activation” each time. Also, the “activation of CatC” value at CatC [3], at CatC [6] (mice blood) and at CatC [6] (mice bone marrow) was “inhibited the activation” in each case. In addition, the IC50 (commonly the concentration that inhibits the measured activity by half) at rhCatC (Cathepsin C) was 3 to 300 nM. The “activation of Pr3” value in the assay on Pr3 (mice blood) and in the assay with Pr3 (mice bone marrow) was “inhibited the activation” in each case.
